The text below walks through data of US20200399335A1, “MODIFIED IMMUNOMODULATORY PEPTIDE” (Aarhus Universitet, priority 2018, published 2020).

Where no end group is shown, it is not given here. The star is where a group is joined. Biotin = O=C1N[C@H]2[C@H](CS[C@H]2CCCCC(=O)*)N1

Data set [1] relates to STING activation. The settings on record: previously shown; no details given; cited from earlier work.
Data set [2] has as its system STING activation. The settings on record: PBMCs of two donors with wildtype STING, peptide priming then HT-DNA, 20 hours; vs parental SEQ ID NO.6.
Description: Both donors carried STING wildtype proteins allowing us to evaluate important amino acid positions within the polypeptide.
(§1) Peripheral Blood Mononuclear cells (PBMCs) were isolated from healthy donors by Ficoll Paque gradient centrifugation (GE Healthcare). PBMCs were cultured in RPMI complete supplemented with IL-2.
(§2) To quantify functional type I IFN the reporter cell line HEK-Blue™ IFN-α/β (InvivoGen) was utilized according to the manufacturer's instructions. […] This cell line expresses secreted embryonic alkaline phosphatase under the control of the IFN-α/β inducible ISG54 promotor. SEAP activity was assessed by measuring optical density (OD) at 620 nm on a micro plate reader (ELx808, BioTEK). The standard range was made with IFN-α (A2) (PBL Assay Science).
(§3) Protein levels of the cytokines CXCL10 and IL6 in supernatants, were measured using DuoSet ELISA kits from RnD following the manufacturer's instructions.
The subject of data set [3] is STING activation. The data set is described as follows: Screening of alanine modified peptides in PMA-differentiated THP1 cells stimulated with 2′3′cGAMP. The settings on record: PMA-treated THP1 (STING HAQ), peptide pre-stimulation 1 hour, then 2′3′cGAMP, supernatant 20 hours; alanine variant vs SEQ ID NO.6.
Excerpt: Screening of alanine modified peptides in THP1 cells. […] THP1 cells were differentiated into macrophages using PMA. […] Twenty hours later supernatants were harvest and used to assess the production of type I IFN (A) or CXCL10 (B). Data represent the mean±SD of biological triplicates, representative of two independent experiments
as §2, §3
For data set [4], the system named is HSV-1 GFP. In words: HSV-1 GFP infection of human fibroblast, flow cytometry 48 hpi. The settings on record: for viral inhibition of alanine variant compared with SEQ ID NO.6 / viral inhibition: HSV-1 GFP MOI 0.05, 48 hpi. In general terms: A flow cytometer gives signals particle by particle.
Excerpt: Screening of alanine modified peptides in human fibroblasts.
Data was processed in FlowJo (Tree Star)
Data set [5] in a line: Circular dichroism spectrum of polypeptides. The class given is physicochemical. The settings on record: in the recommended buffer. The text has this: FIG. 5. CD spectra of polypeptides with specific alanine mutations.
The Example illustrate the CD spectrum of polypeptide (SEQ ID NO. 6) and two alanine mutations (SEQ ID NO. 17 and 19). […] FIG. 5.
(In general: Circular dichroism is widely used to follow secondary structure.)

The subject of data set [6] is STING activity. The settings on record: PBMCs from two donors, peptide pre-treatment then cGAMP; vs peptide 101.
Description: as §1, §2, §3
For data set [7], the system named is human fibroblast. The data set is described as follows: Cell viability test in human fibroblast (CellTiter-Glo). The class given is cell-based. The settings on record: 48 hpi. On the procedure: FIG. 8. Cell viability test. […] As a positive control for cell death, human fibroblast was treated with staurosporine (500 nM). Cell viability was analyzed 48 hpi.
The highest peptide concentration utilized in the present studies reached a maximum cell death percentage of less than 10%; cf. FIG. 8.
Viability tests were conducted using the CellTiter-Glo® 2.0 Assay (Promega, G9242). Each sample was conducted in technical triplicates and luminescence data analyzed.
On the technique in general: Cellular ATP, detected with luciferase, serves as a proxy for viable cell number.

Consider “Biotin-EDIPTLEDLAETLKKEKLKGRKKRRQRRRPQ-NH2 [S7]”, for which the “synergistic effects on STING activation” value in data set [1] is “not to lead to synergistic effects on STING activation”.
As for “KAYKNIVLLKGLEVINDYHF ((1)..(20) An immunomodulatory polypeptide derived from the pyrin domain of human IFI16 with amino acid residue changes.) [peptide A2]”, in data set [2], the “secretion of interleukin IL6” value is “very potent and synergistic effect”; the “secretion of the chemokine CXCL10” value is recorded as “partly impaired CXCL10”. In data set [3], the “synergistic effect of supporting STING activation: induction of type I IFNs” value (shortened to “synergistic effect … of type I IFNs”) is “affected polypeptide synergistic effects”.
Consider “KKAKNIVLLKGLEVINDYHF ((1)..(20) An immunomodulatory polypeptide derived from the pyrin domain of human IFI16 with amino acid residue changes.) [peptide A3]”, for which the “secretion of interleukin IL6” value in data set [2] was “very potent and synergistic effect”.
With “KKYKNAVLLKGLEVINDYHF ((1)..(20) An immunomodulatory polypeptide derived from the pyrin domain of human IFI16 with amino acid residue changes.) [peptide A6]”, the “viral inhibition of alanine variant compared with SEQ ID NO.6” value in data set [4] is recorded as “depleted”. The “secretion of interleukin IL6” value in data set [2] was “prohibited the synergistic effects”. Moreover, the “synergistic effect … of type I IFNs” value in data set [3] was “affected polypeptide synergistic effects”.
For the substance “KKYKNIALLKGLEVINDYHF ((1)..(20) An immunomodulatory polypeptide derived from the pyrin domain of human IFI16 with amino acid residue changes.) [peptide A7]”, the “viral inhibition of alanine variant compared with SEQ ID NO.6” value in data set [4] is “depleted”. Besides, the “secretion of interleukin IL6” value in data set [2] is “prohibited the synergistic effects”.
Regarding “KKYKNIVALKGLEVINDYHF ((1)..(20) An immunomodulatory polypeptide derived from the pyrin domain of human IFI16 with amino acid residue changes.) [peptide A8]”, in data set [3], the “synergistic effect … of type I IFNs” value is recorded as “affected polypeptide synergistic effects”.
Still for that read-out and setting: the same measure for “KKYKNIVLAKGLEVINDYHF ((1)..(20) An immunomodulatory polypeptide derived from the pyrin domain of human IFI16 with amino acid residue changes.) [peptide A9]”: “affected polypeptide synergistic effects”.
Turning to “KKYKNIVLLAGLEVINDYHF ((1)..(20) An immunomodulatory polypeptide derived from the pyrin domain of human IFI16 with amino acid residue changes.) [peptide A10]”, in data set [4], the viral inhibition is about 100%. Also, the “antiviral effect compared with polypeptide NO. 6 at increased MOI” value in data set [4] (HSV-1 GFP MOI 0.1, 25 μg/mL, 48 hpi) is on record as “increased effect”. For the same substance, in data set [2], the “secretion of interleukin IL6” value is “damped IL6 secretion”, the “secretion of the chemokine CXCL10” value was “without affecting CXL10 responses” and the “type I IFN responses” value is “significantly increased type I IFN responses”. The “synergistic effect … of type I IFNs” value in data set [3] is given as “affected polypeptide synergistic effects”.
For “KKYKNIVLLKALEVINDYHF ((1)..(20) An immunomodulatory polypeptide derived from the pyrin domain of human IFI16 with amino acid residue changes.) [peptide A11]”, in data set [5], the “secondary structure from CD spectrum” value was “random coil-coil formation”. Besides, the “synergistic effect of supporting STING activation: CXCL10 cytokine secretion” value (from here on “synergistic effect … CXCL10 cytokine secretion”) in data set [3] is reported as “strongly affected the synergistic effects”.
Regarding “KKYKNIVLLKGAEVINDYHF ((1)..(20) An immunomodulatory polypeptide derived from the pyrin domain of human IFI16 with amino acid residue changes.) [peptide A12]”, the “synergistic effect … of type I IFNs” value in data set [3] is recorded as “affected polypeptide synergistic effects”.
Turning to “KKYKNIVLLKGLAVINDYAA ((1)..(20) An immunomodulatory polypeptide derived from the pyrin domain of human IFI16 with amino acid residue changes.) [peptide 107]”, in data set [6], the CXCL10 secretion entry is “supported increased IFN and CXCL10 secretion”; the IFN secretion result is “supported increased IFN and CXCL10 secretion”; the IL6 response entry is on record as “impaired the IL6 response”.
Consider “KKYKNIVLLKGLAVINDYHF ((1)..(20) An immunomodulatory polypeptide derived from the pyrin domain of human IFI16 with amino acid residue changes.) [peptide A13]”, for which, in data set [5], the “secondary structure from CD spectrum” value is given as “random coil-coil formation”. For the same substance, in data set [2], the “secretion of the chemokine CXCL10” value is recorded as “without affecting CXL10 responses” and the “type I IFN responses” value is “significantly increased type I IFN responses”. In data set [3], the “synergistic effect … CXCL10 cytokine secretion” value is given as “strongly affected the synergistic effects” and the “synergistic effect … of type I IFNs” value was “affected polypeptide synergistic effects”.
For “KKYKNIVLLKGLEAINDYHF ((1)..(20) An immunomodulatory polypeptide derived from the pyrin domain of human IFI16 with amino acid residue changes.) [peptide A14]”, the “viral inhibition of alanine variant compared with SEQ ID NO.6” value in data set [4] was “decreased”.
“KKYKNIVLLKGLEVANDYHF ((1)..(20) An immunomodulatory polypeptide derived from the pyrin domain of human IFI16 with amino acid residue changes.) [peptide A15]”: the “secretion of interleukin IL6” value in data set [2] was “prohibited the synergistic effects”.
The same measure, in the same setting: the same measure for “KKYKNIVLLKGLEVIADYHF ((1)..(20) An immunomodulatory polypeptide derived from the pyrin domain of human IFI16 with amino acid residue changes.) [peptide A16]”: “prohibited the synergistic effects”.
“KKYKNIVLLKGLEVINAYHF ((1)..(20) An immunomodulatory polypeptide derived from the pyrin domain of human IFI16 with amino acid residue changes.) [peptide A17]” returned a viral inhibition in data set [4] of about 100%.
Regarding “KKYKNIVLLKGLEVINDYAF ((1)..(20) An immunomodulatory polypeptide derived from the pyrin domain of human IFI16 with amino acid residue changes.) [peptide A19]”, the “synergistic effect … CXCL10 cytokine secretion” value in data set [3] is listed as “strongly affected the synergistic effects”.
Consider “KKYKNIVLLKGLEVINDYHA ((1)..(20) An immunomodulatory polypeptide derived from the pyrin domain of human IFI16 with amino acid residue changes.) [peptide A20]”, for which the “synergistic effect … CXCL10 cytokine secretion” value in data set [3] is “strongly affected the synergistic effects”.
For KKYKNIVLLKGLEVINDYHF-NH2 [peptide 101], in data set [7] (HSV-1 GFP, HSV-2 GFP (MOI 0.05) or uninfected), the “toxicity in human fibroblast” value is “no toxicity”. For the same substance, the “maximum cell death percentage” value in data set [7] (highest peptide concentration utilized (80 μg/mL)) is “less than 10%”.
